According to PubChem BioAssay AID608 (Sanford-Burnham Center for Chemical Genomics, 2007):
The source made the active and inactive calls. The rule behind the calls is not given here.

biological target: Peptidyl-prolyl cis-trans isomerase FKBP1A (Homo sapiens) (UniProt P62942); assay: small-molecule binding to FKBP12 – biophysical, NMR detection (AID 608); details: purified FKBP12
Sequence (P62942 whole entry, looked up): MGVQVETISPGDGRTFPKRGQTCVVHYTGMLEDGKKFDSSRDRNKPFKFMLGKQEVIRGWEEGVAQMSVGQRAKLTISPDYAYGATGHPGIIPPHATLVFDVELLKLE

**Q.** Which Kd does the source give for `O=C(O)c1ccccc1N1CCOCC1` here?
**A.** The Kd was > 4 mM (inactive).

**Q.** For `Cc1cc(NC(=O)c2c(F)c(F)c(F)c(F)c2F)no1`, which Kd is on record?
**A.** The Kd was > 4 mM (inactive).

**Q.** With `O=C(O)CCc1ccc2c(c1)OCO2` as the compound, how does the Kd read?
**A.** Its Kd is > 4 mM (inactive).

**Q.** `c1ccc(-c2noc(-c3ccco3)n2)nc1` was tested. Which Kd did it give?
**A.** The Kd was > 4 mM (inactive).

**Q.** How did the Kd turn out when `CC(=O)Cc1nsc(NC(=O)c2ccc(C)cc2)n1` was run?
**A.** The Kd was > 4 mM (inactive).

**Q.** `O=C1N/C(=N\c2ccccn2)SC1Cc1ccccc1` (stereo unspecified) was tested. Which Kd did it give?
**A.** The Kd was > 4 mM (inactive).

**Q.** Which Kd does the source give for `Cc1cc(=O)[nH]c(N)n1` here?
**A.** Its Kd is > 4 mM (inactive).

**Q.** `O=S(=O)(Nc1ccc(F)cc1)N1CCOCC1` was tested. Which Kd did it give?
**A.** Its Kd is > 4 mM (inactive).

**Q.** With `Nc1cc(-c2ccco2)[nH]n1` as the compound, how does the Kd read?
**A.** Its Kd is > 4 mM (inactive).

**Q.** For `Cc1c(-c2ccc(F)cc2)[n+](=O)c2c(n1[O-])CCC2`, which Kd is on record?
**A.** Its Kd is > 4 mM (inactive).

**Q.** For `CC(=O)Oc1c2c(c3c(c1CC=C(C)C)O[C@]14C(=C[C@@H]5CC1C(C)(C)OC4(C/C=C(\C)C(=O)O)C5=O)C3=O)OC(C)(CCC=C(C)C)C=C2` (stereo partly specified), which Kd is on record?
**A.** Its Kd is > 4 mM (inactive).

**Q.** With `C=C[C@@]1(C)CC(=O)[C@@]2(O)[C@](C)(O1)[C@@H](OC(C)=O)[C@@H](O)C1C(C)(C)CC[C@H](O)[C@@]12C` (stereo partly specified) as the compound, how does the Kd read?
**A.** The Kd was > 4 mM (inactive).

**Q.** For `Cc1occc1C(=O)Nc1cc(C(C)(C)C)on1`, which Kd is on record?
**A.** The Kd was > 4 mM (inactive).

**Q.** How did the Kd turn out when `Nc1c(/C=C2\C=Nc3ccccc32)c(=O)nc2scnn12` was run?
**A.** Its Kd is > 4 mM (inactive).

**Q.** How did the Kd turn out when `C(=Nn1cnnc1)c1ccccc1` was run?
**A.** The Kd was > 4 mM (inactive).

**Q.** How did the Kd turn out when `Cc1cc(C)nc(NC(N)=NCc2ccco2)n1` was run?
**A.** Its Kd is > 4 mM (inactive).

**Q.** For `O=C(NC(=S)NC1CCSC1=O)c1ccco1` (stereo unspecified), which Kd is on record?
**A.** Its Kd is > 4 mM (inactive).

**Q.** Which Kd does the source give for `CC(=O)c1csc(-c2cc(C)on2)n1` here?
**A.** Its Kd is > 4 mM (inactive).

**Q.** Which Kd does the source give for `NCc1c[nH]c2ccccc12` here?
**A.** The Kd was > 4 mM (inactive).

**Q.** `CC(=O)Nc1ccc(NC(=O)/C=C\C(=O)O)cc1` was tested. Which Kd did it give?
**A.** Its Kd is > 4 mM (inactive).

**Q.** `Cn1c(=O)c2c(ncn2CCNC2=NCCC2)n(C)c1=O` was tested. Which Kd did it give?
**A.** The Kd was > 4 mM (inactive).

**Q.** `CCn1ncc(Cl)c1C(=O)Nc1ccncc1` was tested. Which Kd did it give?
**A.** The Kd was > 4 mM (inactive).

**Q.** For `COC(=O)c1cncc(C(=O)OC)c1`, which Kd is on record?
**A.** Its Kd is > 4 mM (inactive).

**Q.** How did the Kd turn out when `C=C(C)C1(O)OC(=O)C=C1OC` (stereo unspecified) was run?
**A.** The Kd was > 4 mM (inactive).

**Q.** With `CN1CN/C(=N\[N+](=O)[O-])N(c2ccccc2)C1` as the compound, how does the Kd read?
**A.** The Kd was > 4 mM (inactive).

**Q.** Which Kd does the source give for `CC(C)(C(N)=O)/[N+]([O-])=C\c1ccccc1` here?
**A.** Its Kd is > 4 mM (inactive).

**Q.** How did the Kd turn out when `CC1=C(C(N)=O)C(c2cccs2)C(C(N)=O)=C(C)N1` was run?
**A.** Its Kd is > 4 mM (inactive).

**Q.** `Cc1c(/C=N\n2cnnc2)c2ccccc2n1C` was tested. Which Kd did it give?
**A.** Its Kd is > 4 mM (inactive).

**Q.** Which Kd does the source give for `CN(C)N1C(=O)C2C3C=CC(O3)C2C1=O` (stereo unspecified) here?
**A.** Its Kd is > 4 mM (inactive).

**Q.** Which Kd does the source give for `CN1CC(=O)Nc2ccc([N+](=O)[O-])cc2C1=O` here?
**A.** Its Kd is > 4 mM (inactive).

**Q.** With `CCc1c(C)[nH]c(=S)c(C(N)=O)c1C` as the compound, how does the Kd read?
**A.** The Kd was > 4 mM (inactive).

**Q.** Which Kd does the source give for `Nc1cc2ccccc2cn1` here?
**A.** Its Kd is > 4 mM (inactive).

**Q.** Which Kd does the source give for `NC(=O)c1ccc(C(N)=O)cc1` here?
**A.** Its Kd is > 4 mM (inactive).

**Q.** Which Kd does the source give for `Nc1ncnc(NCCCO)c1[N+](=O)[O-]` here?
**A.** The Kd was > 4 mM (inactive).

**Q.** How did the Kd turn out when `C[C@@H]1CC[C@@]2(NC1)O[C@H]1C[C@H]3C4CC=C5C[C@@H](O)CC[C@]5(C)C4CC[C@]3(C)C1[C@@H]2C` (stereo partly specified) was run?
**A.** Its Kd is > 4 mM (inactive).

**Q.** With `CC(C)=CCc1c(O)cc2oc(C)cc(=O)c2c1O` as the compound, how does the Kd read?
**A.** The Kd was > 4 mM (inactive).

**Q.** How did the Kd turn out when `Cn1cnc2c(=S)[nH]c(=O)n(Cc3ccccc3)c21` was run?
**A.** Its Kd is > 4 mM (inactive).

**Q.** For `Nc1nc(SCc2ccc3c(c2)OCO3)n[nH]1`, which Kd is on record?
**A.** The Kd was > 4 mM (inactive).

**Q.** `COc1cc(CNCCc2ccc(S(N)(=O)=O)cc2)ccc1OCC(=O)N1CCOCC1` was tested. Which Kd did it give?
**A.** Its Kd is > 4 mM (inactive).

**Q.** How did the Kd turn out when `Cc1nnc(SCC(=O)NC2CCCC2)[nH]c1=O` was run?
**A.** Its Kd is > 4 mM (inactive).

**Q.** With `CCc1ccc(OCC(=O)N2CCOCC2)cc1` as the compound, how does the Kd read?
**A.** Its Kd is 0.435 mM.

**Q.** For `COc1ccccc1CNc1nc2nc(C)cc(=O)n2[nH]1`, which Kd is on record?
**A.** Its Kd is > 4 mM (inactive).

**Q.** For `Cc1c(CO)cnn1-c1ccccc1`, which Kd is on record?
**A.** The Kd was > 4 mM (inactive).

**Q.** For `N#Cc1ccccc1Cn1c(-c2cscn2)nc2ccccc21`, which Kd is on record?
**A.** Its Kd is “inactive”.

**Q.** For `COc1ccccc1-c1cn[nH]c(=S)n1`, which Kd is on record?
**A.** Its Kd is > 4 mM (inactive).

**Q.** With `Cc1ccccc1-n1c(-c2cccnc2)n[nH]c1=S` as the compound, how does the Kd read?
**A.** Its Kd is > 4 mM (inactive).

**Q.** `C(=N\c1ncn[nH]1)/c1cccs1` was tested. Which Kd did it give?
**A.** Its Kd is > 4 mM (inactive).

**Q.** How did the Kd turn out when `Cn1cnnc1SCC(=O)Nc1nccs1` was run?
**A.** Its Kd is > 4 mM (inactive).

**Q.** Which Kd does the source give for `COc1ccc(-c2ccc(=O)n(CC(N)=O)n2)cc1` here?
**A.** Its Kd is > 4 mM (inactive).

**Q.** Which Kd does the source give for `CC1(C)Cn2c(nnc2-c2ccccc2)S1` here?
**A.** The Kd was > 4 mM (inactive).

**Q.** For `COCc1nn2c(N)c(C#N)cnc2c1-c1ccccc1`, which Kd is on record?
**A.** The Kd was > 4 mM (inactive).

**Q.** How did the Kd turn out when `CC(=O)c1cccc(NC(=O)NN2CCOCC2)c1` was run?
**A.** Its Kd is > 4 mM (inactive).

**Q.** `CC(=O)c1cccc(NC(=O)Nc2c(C)nn(C)c2C)c1` was tested. Which Kd did it give?
**A.** The Kd was > 4 mM (inactive).

**Q.** For `Nc1ccn(C2O[C@H](CO)[C@@H](O)[C@H]2O)c(=O)n1` (stereo partly specified), which Kd is on record?
**A.** Its Kd is > 4 mM (inactive).

**Q.** How did the Kd turn out when `O=C(Nc1ccon1)c1ccc(Cl)s1` was run?
**A.** Its Kd is > 4 mM (inactive).

**Q.** With `CCOC(=O)C1=C(C)N2CCN=C2S1` as the compound, how does the Kd read?
**A.** Its Kd is > 4 mM (inactive).

**Q.** `O=C(/C=C/c1ccc(O)cc1)c1ccc(O)cc1O` was tested. Which Kd did it give?
**A.** Its Kd is > 4 mM (inactive).

**Q.** With `CCCc1cc(=O)[nH]c2nnc(SCC(C)=O)n12` as the compound, how does the Kd read?
**A.** The Kd was > 4 mM (inactive).

**Q.** `CC1(C)CC[C@]2(C)CC[C@]3(C)C(=CCC4[C@@]5(C)CC[C@H](O)C(C)(C)C5CC[C@]43C)C2C1` (stereo partly specified) was tested. Which Kd did it give?
**A.** Its Kd is > 4 mM (inactive).

**Q.** For `c1coc(CNc2ncnc3nc[nH]c23)c1`, which Kd is on record?
**A.** Its Kd is > 4 mM (inactive).

**Q.** How did the Kd turn out when `CC(C)c1c(O)ccc2c1CCC1C(C)(C)CCC[C@]21C` (stereo partly specified) was run?
**A.** The Kd was > 4 mM (inactive).
